Test results published in patent US12102089B2, “Method for inactivating mold spores” (DSM IP ASSETS B.V., priority 2017, dated 2024).

Tested on: Paecilomyces variotti (ATCC 22319)
Test: Heat treatment of Paecilomyces variotti spores in ice tea with natamycin, visual growth
Format: cell-based
Set-up: key to growth (+) or no growth (−): growth (+); no growth (−)
Description: Commercially available ice tea (Lipton, peach flavor, non-carbonated, 1.5 L) was adjusted to high water hardness by adding 1 ml of a solution of 39 g CaCl2 and 27 g MgCl2 added to 934 g water. ⅓ of this ice tea preparation (the pH of which was 3.15) was left as-such, ⅓ of the preparation was enriched with 5 ppm natamycin and ⅓ of the preparation was enriched with 10 ppm natamycin. Samples of 5 ml were made from each preparation in 15 ml sterile plastic tubes. Of each preparation 8 samples were pre-heated to the desired pasteurization temperature using a water bath. Temperatures used were RT, 60, 65, 70, 75, 80, 85 and 90° C. When the desired temperature was reached, 100 μl of a 2500 spores/ml spore suspension of Aspergillus niger ATCC 9029AA was added to each tube. Subsequently, the samples were kept for 30 seconds at the temperature in question in the water bath. Next, the samples were cooled on ice to a temperature of 25° C. Samples were incubated at 25° C. and visually examined for growth (formation of mold flakes or turbidity) for two months. Additionally, samples were enumerated according to ISO protocol 21527-1.2008 on day 0 (before heat treatment) and day 1 (after heat treatment) to count immediate loss of viability. […] For the results, see Table 1. […] Example 1 was repeated however with Paecilomyces variotti (ATCC 22319, 1000 spores/ml) instead of Aspergillus niger.

## C[C@@H]1C/C=C/C=C/C=C/C=C/[C@H](O[C@@H]2O[C@H](C)[C@@H](O)[C@H](N)[C@@H]2O)C[C@@H]2O[C@](O)(C[C@@H](O)C[C@H]3O[C@@H]3/C=C/C(=O)O1)C[C@H](O)[C@H]2C(=O)O [natamycin]
90° C., in the presence of natamycin
  germination: no germination occurred
RT and 60° C., 5 or 10 ppm natamycin
  germination: delayed germination
T 60, natamycin 5 ppm, day 1
  growth (+) or no growth (−): −
T 60, natamycin 5 ppm, day 2
  growth (+) or no growth (−): −
T 60, natamycin 5 ppm, day 3
  growth (+) or no growth (−): −
T 60, natamycin 5 ppm, day 4
  growth (+) or no growth (−): −
T 60, natamycin 5 ppm, day 5
  growth (+) or no growth (−): −
T 60, natamycin 5 ppm, day 6
  growth (+) or no growth (−): −
T 60, natamycin 5 ppm, day 7
  growth (+) or no growth (−): −
T 60, natamycin 5 ppm, day 8
  growth (+) or no growth (−): −
T 60, natamycin 5 ppm, day 9
  growth (+) or no growth (−): −
T 60, natamycin 5 ppm, day 10
  growth (+) or no growth (−): +
T 60, natamycin 5 ppm, day 11
  growth (+) or no growth (−): +
T 60, natamycin 5 ppm, day 12
  growth (+) or no growth (−): +
T 60, natamycin 5 ppm, day 13
  growth (+) or no growth (−): +
T 60, natamycin 5 ppm, day 14
  growth (+) or no growth (−): +
T 60, natamycin 5 ppm, day 15
  growth (+) or no growth (−): +
T 60, natamycin 5 ppm, day 16
  growth (+) or no growth (−): +
T 60, natamycin 5 ppm, day 17
  growth (+) or no growth (−): +
T 60, natamycin 5 ppm, day 50
  growth (+) or no growth (−): +
T 60, natamycin 10 ppm, day 1
  growth (+) or no growth (−): −
T 60, natamycin 10 ppm, day 2
  growth (+) or no growth (−): −
T 60, natamycin 10 ppm, day 3
  growth (+) or no growth (−): −
T 60, natamycin 10 ppm, day 4
  growth (+) or no growth (−): −
T 60, natamycin 10 ppm, day 5
  growth (+) or no growth (−): −
T 60, natamycin 10 ppm, day 6
  growth (+) or no growth (−): −
T 60, natamycin 10 ppm, day 7
  growth (+) or no growth (−): −
T 60, natamycin 10 ppm, day 8
  growth (+) or no growth (−): −
T 60, natamycin 10 ppm, day 9
  growth (+) or no growth (−): −
T 60, natamycin 10 ppm, day 10
  growth (+) or no growth (−): −
T 60, natamycin 10 ppm, day 11
  growth (+) or no growth (−): −
T 60, natamycin 10 ppm, day 12
  growth (+) or no growth (−): −
T 60, natamycin 10 ppm, day 13
  growth (+) or no growth (−): −
T 60, natamycin 10 ppm, day 14
  growth (+) or no growth (−): +
T 60, natamycin 10 ppm, day 15
  growth (+) or no growth (−): +
T 60, natamycin 10 ppm, day 16
  growth (+) or no growth (−): +
T 60, natamycin 10 ppm, day 17
  growth (+) or no growth (−): +
T 60, natamycin 10 ppm, day 50
  growth (+) or no growth (−): +
T 65, natamycin 5 ppm, day 1
  growth (+) or no growth (−): −
T 65, natamycin 5 ppm, day 2
  growth (+) or no growth (−): −
T 65, natamycin 5 ppm, day 3
  growth (+) or no growth (−): −
T 65, natamycin 5 ppm, day 4
  growth (+) or no growth (−): −
T 65, natamycin 5 ppm, day 5
  growth (+) or no growth (−): −
T 65, natamycin 5 ppm, day 6
  growth (+) or no growth (−): −
T 65, natamycin 5 ppm, day 7
  growth (+) or no growth (−): −
T 65, natamycin 5 ppm, day 8
  growth (+) or no growth (−): −
T 65, natamycin 5 ppm, day 9
  growth (+) or no growth (−): −
T 65, natamycin 5 ppm, day 10
  growth (+) or no growth (−): −
T 65, natamycin 5 ppm, day 11
  growth (+) or no growth (−): −
T 65, natamycin 5 ppm, day 12
  growth (+) or no growth (−): −
T 65, natamycin 5 ppm, day 13
  growth (+) or no growth (−): −
T 65, natamycin 5 ppm, day 14
  growth (+) or no growth (−): −
T 65, natamycin 5 ppm, day 15
  growth (+) or no growth (−): −
T 65, natamycin 5 ppm, day 16
  growth (+) or no growth (−): −
T 65, natamycin 5 ppm, day 17
  growth (+) or no growth (−): −
T 65, natamycin 5 ppm, day 50
  growth (+) or no growth (−): −
T 65, natamycin 10 ppm, day 1
  growth (+) or no growth (−): −
T 65, natamycin 10 ppm, day 2
  growth (+) or no growth (−): −
T 65, natamycin 10 ppm, day 3
  growth (+) or no growth (−): −
T 65, natamycin 10 ppm, day 4
  growth (+) or no growth (−): −
T 65, natamycin 10 ppm, day 5
  growth (+) or no growth (−): −
T 65, natamycin 10 ppm, day 6
  growth (+) or no growth (−): −
T 65, natamycin 10 ppm, day 7
  growth (+) or no growth (−): −
T 65, natamycin 10 ppm, day 8
  growth (+) or no growth (−): −
T 65, natamycin 10 ppm, day 9
  growth (+) or no growth (−): −
T 65, natamycin 10 ppm, day 10
  growth (+) or no growth (−): −
T 65, natamycin 10 ppm, day 11
  growth (+) or no growth (−): −
T 65, natamycin 10 ppm, day 12
  growth (+) or no growth (−): −
T 65, natamycin 10 ppm, day 13
  growth (+) or no growth (−): −
T 65, natamycin 10 ppm, day 14
  growth (+) or no growth (−): −
T 65, natamycin 10 ppm, day 15
  growth (+) or no growth (−): −
T 65, natamycin 10 ppm, day 16
  growth (+) or no growth (−): −
T 65, natamycin 10 ppm, day 17
  growth (+) or no growth (−): −
T 65, natamycin 10 ppm, day 50
  growth (+) or no growth (−): −
T 70, natamycin 5 ppm, day 1
  growth (+) or no growth (−): −
T 70, natamycin 5 ppm, day 2
  growth (+) or no growth (−): −
T 70, natamycin 5 ppm, day 3
  growth (+) or no growth (−): −
T 70, natamycin 5 ppm, day 4
  growth (+) or no growth (−): −
T 70, natamycin 5 ppm, day 5
  growth (+) or no growth (−): −
T 70, natamycin 5 ppm, day 6
  growth (+) or no growth (−): −
T 70, natamycin 5 ppm, day 7
  growth (+) or no growth (−): −
T 70, natamycin 5 ppm, day 8
  growth (+) or no growth (−): −
T 70, natamycin 5 ppm, day 9
  growth (+) or no growth (−): −
T 70, natamycin 5 ppm, day 10
  growth (+) or no growth (−): −
T 70, natamycin 5 ppm, day 11
  growth (+) or no growth (−): −
T 70, natamycin 5 ppm, day 12
  growth (+) or no growth (−): −
T 70, natamycin 5 ppm, day 13
  growth (+) or no growth (−): −
T 70, natamycin 5 ppm, day 14
  growth (+) or no growth (−): −
T 70, natamycin 5 ppm, day 15
  growth (+) or no growth (−): −
T 70, natamycin 5 ppm, day 16
  growth (+) or no growth (−): −
T 70, natamycin 5 ppm, day 17
  growth (+) or no growth (−): −
T 70, natamycin 5 ppm, day 50
  growth (+) or no growth (−): −
T 70, natamycin 10 ppm, day 9
  growth (+) or no growth (−): −
T 70, natamycin 10 ppm, day 10
  growth (+) or no growth (−): −
T 70, natamycin 10 ppm, day 11
  growth (+) or no growth (−): −
T 70, natamycin 10 ppm, day 12
  growth (+) or no growth (−): −
T 70, natamycin 10 ppm, day 13
  growth (+) or no growth (−): −
T 70, natamycin 10 ppm, day 14
  growth (+) or no growth (−): −
T 70, natamycin 10 ppm, day 15
  growth (+) or no growth (−): −
T 70, natamycin 10 ppm, day 16
  growth (+) or no growth (−): −
T 70, natamycin 10 ppm, day 17
  growth (+) or no growth (−): −
T 70, natamycin 10 ppm, day 50
  growth (+) or no growth (−): −
